System: SW480
Assay: drug sensitivity score (DSS, integrated dose-response area); higher = more sensitive (stronger viability reduction); extreme values may be limits of the assay
Summary of the method: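 The drug sensitivity score is the integrated area under a fitted non-linear dose–response model. It was derived from SW480 cells with doxycycline-inducible control or SND1-targeting shRNA, induced with 0.1 µg/mL doxycycline for 7 days and plated at 1000 cells per well on 384-well plates of 525 commercially available small-molecule inhibitors at five concentrations. CellTiter-Glo measured viability after 72 h.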

[1] = shRNA: SND1 shRNA1 (SND1 silenced)
[2] = shRNA: SND1 shRNA2 (SND1 silenced)
[3] = shRNA: control shRNA (non-targeting)

Compound	drug sensitivity score [1]	drug sensitivity score [2]	drug sensitivity score [3]
CC(=O)NCC(=O)N1[C@@H]2CC[C@H]1c1ccc(Nc3ncc(C(F)(F)F)c(NC4CCC4)n3)cc12	17.4 DSS	14.2 DSS	13.2 DSS
CC(C)(C)C[C@@H]1N[C@@H](C(=O)N[C@H]2CC[C@H](O)CC2)[C@H](c2cccc(Cl)c2F)[C@]12C(=O)Nc1cc(Cl)ccc12	1.3 DSS	1.9 DSS	3.3 DSS
CC(C)CC(=O)Nc1n[nH]c2c1CN(C(=O)C1CCN(C)CC1)C2(C)C	6.1 DSS	5.8 DSS	10.7 DSS
CC(C)Oc1ccc(C(=O)N[C@H](CNC(=O)CN(C)C)Cc2ccc(-c3cn4cccc([C@H](C)O)c4n3)cc2)cc1Cl	13.1 DSS	12 DSS	13.3 DSS
CCNC(=O)C[C@@H]1N=C(c2ccc(Cl)cc2)c2cc(OC)ccc2-n2c(C)nnc21	2.7 DSS	0 DSS	0.6 DSS
CCOc1ccn(-c2ccc(F)cc2)c(=O)c1C(=O)Nc1ccc(Oc2ccnc(N)c2Cl)c(F)c1	1.9 DSS	8.3 DSS	6.5 DSS
CCc1cc(Nc2nccc(-c3c(-c4ccc(OC)c(C(=O)Nc5c(F)cccc5F)c4)nc4ccccn34)n2)c(OC)cc1N1CCC(N2CCN(S(C)(=O)=O)CC2)CC1	0.2 DSS	2.1 DSS	0 DSS
CCc1cncnc1N1CCN(Cc2nc3ccc(C(F)(F)F)cc3[nH]2)CC1	0.3 DSS	2.9 DSS	2 DSS
CCn1c(-c2nonc2N)nc2c(C#CC(C)(C)O)ncc(OC[C@H]3CCCNC3)c21	0.9 DSS	–	2 DSS
CCn1c(-c2nonc2N)nc2cnc(Oc3cccc(NC(=O)c4ccc(OCCN5CCOCC5)cc4)c3)cc21	4.8 DSS	5.2 DSS	5.5 DSS
CCn1c(C(=O)N(C2CC2)C2CC2)cc2c3c(ncn3C)c(Nc3cc(C)n(C)n3)nc21	0 DSS	0 DSS	0 DSS
CCn1cc(-c2ccnc3[nH]c(-c4cccc(CN(C)C)c4)cc23)c(-c2ccc(NC(=O)N(C)C)cc2)n1	7.8 DSS	9.5 DSS	10.2 DSS
CN(c1ccccc1CNc1nc(Nc2ccc3c(c2)CC(=O)N3)ncc1C(F)(F)F)S(C)(=O)=O	9.7 DSS	8.3 DSS	9.2 DSS
CN(c1ncccc1CNc1nc(Nc2ccc3c(c2)CC(=O)N3)ncc1C(F)(F)F)S(C)(=O)=O	4.9 DSS	3.5 DSS	3.4 DSS
CN1CCC(COc2cnc(-c3cccc(Cn4nc(-c5cccc(C#N)c5)ccc4=O)c3)nc2)CC1	0 DSS	0 DSS	0 DSS
CNC(=O)c1ccc(C)c(-n2c(C)cc(OCc3ccc(F)cc3F)c(Br)c2=O)c1	0 DSS	1 DSS	0 DSS
CNC(=O)c1ccccc1Nc1nc(Nc2ccc3c(c2OC)CCC[C@H](N2CCN(CCO)CC2)C3)ncc1Cl	3.9 DSS	3.5 DSS	5.5 DSS
CNc1nc(-c2ccc3c(N)n[nH]c3c2)cc(N2C[C@@H](C(=O)NC3CCCCC3)CC[C@H]2C)n1	4.7 DSS	4.2 DSS	3.8 DSS
CNc1ncc2cc(-c3cc(NC(=O)NCCC(C)(C)C)c(F)cc3C)c(C)nc2n1	13.4 DSS	6.6 DSS	9.7 DSS
COCC(=O)NC/C=C/c1ccc2ncnc(Nc3ccc(Oc4ccc(C)nc4)c(C)c3)c2c1	3.4 DSS	–	3.2 DSS
COc1cc2ncnc(Oc3cccc(NC(=O)Nc4cc(C(C)(C)C(F)(F)F)on4)c3)c2cc1OC	4.5 DSS	0 DSS	4.2 DSS
COc1ccc(-c2cc3c(C)nc(N)nc3n([C@H]3CC[C@H](OCCO)CC3)c2=O)cn1	17.3 DSS	13.9 DSS	9.3 DSS
COc1ccc(Cn2ccc3ccc(C(=O)NO)cc32)cc1	3.3 DSS	5.3 DSS	1.8 DSS
CS(=O)(=O)N1CCc2c(-c3cnc(N)nc3)nc(N3CCOCC3)nc21	7 DSS	6.4 DSS	4.2 DSS
C[C@@H](Oc1cc(-n2cnc3ccc(CN4CCN(C)CC4)cc32)sc1C(N)=O)c1ccccc1C(F)(F)F	25.1 DSS	–	23.6 DSS
C[C@@H](Oc1ccc2[nH]nc(/C=C/c3cnn(CCO)c3)c2c1)c1c(Cl)cncc1Cl	8.9 DSS	3.6 DSS	4.2 DSS
C[C@@]1(C(=O)Nc2ccc(F)nc2)CCCN1c1nc(Nc2cc(C3CC3)n[nH]2)c2cccn2n1	8.1 DSS	4.6 DSS	2.4 DSS

Compound	drug sensitivity score [1]	drug sensitivity score [2]	drug sensitivity score [3]
C[C@H]1Oc2cc(cnc2N)-c2c(nn(C)c2C#N)CN(C)C(=O)c2ccc(F)cc21	0.2 DSS	0.4 DSS	1.9 DSS
Cc1c(Cn2c(C)nc3c(C(=O)O)cc(N4CCOCC4)cc32)cccc1C(F)(F)F	2 DSS	3.3 DSS	0.8 DSS
Cc1c(NC(=O)OC[C@@H]2COCCN2)cn2ncnc(Nc3ccc4c(cnn4Cc4cccc(F)c4)c3)c12	2 DSS	3.1 DSS	4 DSS
Cc1ccc(C(=O)N(CCCN)[C@@H](c2oc3cc(Cl)ccc3c(=O)c2Cc2ccccc2)C(C)C)cc1	2.9 DSS	3.7 DSS	5.5 DSS
Cc1ccc2nc(CN(CCN(Cc3nc4ccc(C)cc4[nH]3)Cc3nc4ccc(C)cc4[nH]3)Cc3nc4ccc(C)cc4[nH]3)[nH]c2c1	1.5 DSS	1.3 DSS	2.1 DSS
Cc1cccc(CC(=O)N2CCc3c2ccc(-c2cn(C)c4ncnc(N)c24)c3F)n1	0 DSS	3.3 DSS	0 DSS
Cc1nc(Nc2n[nH]c3c2CN(C(=O)N[C@H](CN(C)C)c2ccccc2)C3(C)C)c2sccc2n1	14.9 DSS	13.7 DSS	16.5 DSS
Cc1ncc(Cl)cc1NCc1ccc(C(=O)N[C@@H](CC2CCCC2)C(=O)NC2CC2)s1	0 DSS	0 DSS	0.3 DSS
Cc1nn(C)c(COc2ccc(N3CCN(S(=O)(=O)N(C)C)CC3)cc2)c1-c1cccc2c(CCCOc3cccc4ccccc34)c(C(=O)O)n(CCN3CCOCC3)c12	4.9 DSS	4.4 DSS	5.7 DSS
Cn1cc(-c2ccc3nnc(C(F)(F)c4ccc5ncccc5c4)n3n2)cn1	0 DSS	0 DSS	1.3 DSS
Cn1cc(C2=Nc3cc(NC(=O)C(N)C4CCCCC4)cc4c3C2=CNNC4=O)cn1 (stereo not drawn)	8.3 DSS	8.3 DSS	10.7 DSS
N#Cc1ccc(COC[C@H]2O[C@@H](n3c(NCc4ccc(Cl)c(Cl)c4)nc4c(N)ncnc43)[C@H](O)[C@@H]2O)cc1	0 DSS	0 DSS	0.1 DSS
NCC(=O)Nc1ccc(-n2nc(C(F)(F)F)cc2-c2ccc3c(ccc4ccccc43)c2)cc1	10 DSS	5.3 DSS	7.5 DSS
NC[C@@](O)(c1ccc(Cl)cc1)c1ccc(-c2cn[nH]c2)cc1	8 DSS	4.7 DSS	10.2 DSS
Nc1nccc(-c2c(-c3ccc(F)cc3)ncn2C2CCCCC2)n1	0.8 DSS	0.4 DSS	0.8 DSS
Nc1ncnc2c1c(COc1cccc(Cl)c1)nn2C1CCOCC1	0 DSS	0.1 DSS	0 DSS
O=C(NC[C@H](O)CN1CCc2ccccc2C1)c1cc(NC2COC2)ncn1	0 DSS	0 DSS	0.2 DSS
O=C(NOCC1CC1)c1ccc(F)c(F)c1Nc1ccc(I)cc1Cl	16.4 DSS	7.4 DSS	10.5 DSS
O=C(NOC[C@H](O)CO)c1ccc(F)c(F)c1Nc1ccc(I)cc1F	17.9 DSS	8.2 DSS	9.5 DSS
O=C(Nc1ccc2[nH]nc(-c3ccncc3)c2c1)[C@@H]1CCN(CC(=O)N2CCN(c3ccc(-c4ncccn4)cc3)CC2)C1	14.2 DSS	8.8 DSS	7.9 DSS
O=C(O)c1ccc(-c2c[nH]c3ncc(-c4ccccc4)cc23)cc1C1CCCC1	1.9 DSS	3.3 DSS	3.4 DSS
O=C(O)c1ccc(CN2CCC(CN[C@@H]3C[C@H]3c3ccccc3)CC2)cc1	0 DSS	8 DSS	1.2 DSS
O=C1NC(=O)/C(=C/c2ccc3nccc(-c4ccncc4)c3c2)S1	7.6 DSS	–	5.9 DSS
O=c1[nH]c(C2CCCN2)nc2c1oc1ccc(Cl)cc12 (stereo not drawn)	1.5 DSS	0 DSS	8.1 DSS
O=c1cc(N2CCOCC2)oc2c(-c3ccccc3)cccc12	8.9 DSS	9.9 DSS	8.3 DSS
OCCn1cc(-c2cnc3nnn(Cc4ccc5ncccc5c4)c3n2)cn1	0 DSS	0 DSS	0 DSS
Oc1c2ccccc2c2c3c(cccc13)N=N2	1.8 DSS	3.4 DSS	0.6 DSS
